Laboratory results: ChEMBL document CHEMBL4385611, “Difluoromethylene at the γ-Lactam α-Position Improves 11-Deoxy-8-aza-PGE1 Series EP4 Receptor Binding and Activity: 11-Deoxy-10,10-difluoro-8-aza-PGE1 Analog (KMN-159) as a Potent EP4 Agonist” (J Med Chem, 2019)
pEC50, pKi: −log10 of the molar value. Converted amounts (≈) assume the structure as drawn.

Columns and labels:
[1] = molecular target: T1, Prostaglandin E2 receptor EP4 subtype (Homo sapiens, UniProt P35408); assay: Agonist activity at human EP4 receptor expressed in HEK293T/17 cells assessed as increase in intracellular cAMP level incubated for 30 mins by ELISA; assay type: functional, cell-based
[2] = Half-life in human hepatocytes at 0.1 uM by HPLC-MS/MS analysis; assay type: ADME, cell-based, Hepatocyte
[3] = Aqueous solubility of the compound in pH 7.4 phosphate-buffered saline at 200 uM after 24 hrs by shake-flask method; assay type: physicochemical
[4] = Half-life in human plasma at 1 uM by HPLC-MS/MS analysis; assay type: ADME, cell-free
[5] = Mutagenicity in Salmonella typhimurium TA1535 after 96 hrs in absence of rat liver S9 fraction by Ames test; assay type: toxicity; details: salmonella enterica subsp. enterica serovar typhimurium, s9, 96 h
Cytochrome P450 3A = Cytochrome P450 3A (Homo sapiens, UniProt P08684+P20815+Q9HB55+P24462); assay: Inhibition of CYP3A in human liver microsomes using testosterone as substrate at 10 uM after 10 mins by HPLC-MS/MS analysis; assay type: ADME
Cytochrome P450 2C8 = molecular target: T2, Cytochrome P450 2C8 (Homo sapiens, UniProt P10632); assay: Inhibition of CYP2C8 in human liver microsomes using paclitaxel as substrate at 10 uM after 10 mins by HPLC-MS/MS analysis; assay type: ADME
T2 sequence (P10632 whole entry): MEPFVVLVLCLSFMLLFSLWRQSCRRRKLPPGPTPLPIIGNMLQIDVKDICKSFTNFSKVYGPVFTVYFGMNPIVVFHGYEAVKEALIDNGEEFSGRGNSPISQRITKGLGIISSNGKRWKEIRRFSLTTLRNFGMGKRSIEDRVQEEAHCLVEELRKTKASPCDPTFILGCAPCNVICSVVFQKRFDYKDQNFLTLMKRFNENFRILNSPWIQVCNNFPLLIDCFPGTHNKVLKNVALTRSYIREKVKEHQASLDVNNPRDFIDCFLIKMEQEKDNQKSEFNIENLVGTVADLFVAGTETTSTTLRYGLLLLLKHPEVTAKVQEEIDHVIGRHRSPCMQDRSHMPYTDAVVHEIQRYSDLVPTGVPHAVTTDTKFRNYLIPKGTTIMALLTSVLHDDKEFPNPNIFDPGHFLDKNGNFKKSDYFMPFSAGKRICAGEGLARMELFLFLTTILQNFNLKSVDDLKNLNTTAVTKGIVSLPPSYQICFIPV

[6] = Protein binding in human plasma at 10 uM after 4 hrs by HPLC-MS/MS-based equilibrium dialysis method; assay type: ADME, cell-free; details: read-out: PPB (converted)
[7] = molecular target: Prostaglandin E2 receptor EP2 subtype (Homo sapiens, UniProt P43116); assay: Agonist activity at human EP2 receptor expressed in HEK293T/17 cells assessed as increase in intracellular cAMP level at 10 uM incubated for 30 mins by ELISA relative to control; assay type: functional, cell-based
Cytochrome P450 2D6 = Cytochrome P450 2D6 (Homo sapiens, UniProt P10635); assay: Inhibition of CYP2D6 in human liver microsomes using dextromethorphan as substrate at 10 uM after 10 mins by HPLC-MS/MS analysis; assay type: ADME
[8] = Mutagenicity in Salmonella typhimurium TA1537 after 96 hrs in presence of rat liver S9 fraction by Ames test; assay type: toxicity, subcellular; details: salmonella enterica subsp. enterica serovar typhimurium, s9, 96 h
Homo sapiens = species on record: Homo sapiens; assay: Selectivity ratio of Ki for displacement of [3H]PGE2 from human recombinant EP2 receptor expressed in HEK293 cell membranes to Ki for displacement of [3H]PGE2 from human recombinant EP4 receptor expressed in HEK293 cell membranes
[9] = Intrinsic clearance in human hepatocytes at 0.1 uM by HPLC-MS/MS analysis; assay type: ADME, cell-based, Hepatocyte
Cytochrome P450 1A = molecular target: T3, Cytochrome P450 1A (Homo sapiens, UniProt P04798+P05177); assay: Inhibition of CYP1A in human liver microsomes using phenacetin as substrate at 10 uM after 10 mins by HPLC-MS/MS analysis; assay type: ADME
T3 sequence (P04798 whole entry): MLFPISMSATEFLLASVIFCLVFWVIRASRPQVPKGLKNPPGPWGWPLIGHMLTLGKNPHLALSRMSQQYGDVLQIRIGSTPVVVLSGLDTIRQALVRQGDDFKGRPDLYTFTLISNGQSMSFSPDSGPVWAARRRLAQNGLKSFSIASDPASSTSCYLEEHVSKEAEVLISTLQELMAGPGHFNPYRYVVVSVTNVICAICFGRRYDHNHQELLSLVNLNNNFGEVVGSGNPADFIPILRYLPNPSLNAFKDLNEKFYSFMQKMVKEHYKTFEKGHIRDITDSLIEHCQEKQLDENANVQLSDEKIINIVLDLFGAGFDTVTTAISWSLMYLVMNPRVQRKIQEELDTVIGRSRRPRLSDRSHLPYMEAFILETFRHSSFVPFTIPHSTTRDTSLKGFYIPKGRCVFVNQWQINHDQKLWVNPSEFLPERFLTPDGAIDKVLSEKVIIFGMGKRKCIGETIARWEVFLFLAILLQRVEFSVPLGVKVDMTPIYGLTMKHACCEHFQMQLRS
T3 sequence (P05177 whole entry): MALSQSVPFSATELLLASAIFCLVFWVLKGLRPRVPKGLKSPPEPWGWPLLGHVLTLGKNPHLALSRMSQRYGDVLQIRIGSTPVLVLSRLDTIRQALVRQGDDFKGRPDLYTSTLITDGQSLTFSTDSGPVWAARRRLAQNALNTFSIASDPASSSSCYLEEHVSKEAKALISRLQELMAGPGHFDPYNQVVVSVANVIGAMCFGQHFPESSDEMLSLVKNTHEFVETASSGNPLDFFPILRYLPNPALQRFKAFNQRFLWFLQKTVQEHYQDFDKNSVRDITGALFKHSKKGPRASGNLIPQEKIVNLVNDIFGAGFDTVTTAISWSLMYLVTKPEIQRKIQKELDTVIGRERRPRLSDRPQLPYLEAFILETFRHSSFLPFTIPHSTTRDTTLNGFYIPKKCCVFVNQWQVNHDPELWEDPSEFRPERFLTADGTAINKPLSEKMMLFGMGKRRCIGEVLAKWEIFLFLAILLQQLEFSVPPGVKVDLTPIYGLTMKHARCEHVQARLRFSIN

[10] = molecular target: T1, Prostaglandin E2 receptor EP4 subtype; assay: Displacement of [3H]PGE2 from human recombinant EP4 receptor expressed in HEK293 cell membranes after 120 mins by liquid scintillation counting method
[11] = Mutagenicity in Salmonella typhimurium TA100 after 96 hrs in absence of rat liver S9 fraction by Ames test; assay type: toxicity; details: salmonella enterica subsp. enterica serovar typhimurium, s9, 96 h
[12] = Mutagenicity in Salmonella typhimurium TA100 after 96 hrs in presence of rat liver S9 fraction by Ames test; assay type: toxicity, subcellular; details: salmonella enterica subsp. enterica serovar typhimurium, s9, 96 h
[13] = Apparent permeability across basolateral to apical side in human Caco2 cells assessed as drug recovery at 5 uM after 120 mins by LC-MS/MS analysis; assay type: ADME, cell-based; details: Caco-2, read-out: Drug recovery
[14] = Apparent permeability across basolateral to apical side in human Caco2 cells at 5 uM after 120 mins by LC-MS/MS analysis; assay type: ADME, cell-based; details: Caco-2
[15] = Apparent permeability across apical to basolateral side in human Caco2 cells at 5 uM after 120 mins by LC-MS/MS analysis; assay type: ADME, cell-based; details: Caco-2

T1 sequence (P35408 whole entry): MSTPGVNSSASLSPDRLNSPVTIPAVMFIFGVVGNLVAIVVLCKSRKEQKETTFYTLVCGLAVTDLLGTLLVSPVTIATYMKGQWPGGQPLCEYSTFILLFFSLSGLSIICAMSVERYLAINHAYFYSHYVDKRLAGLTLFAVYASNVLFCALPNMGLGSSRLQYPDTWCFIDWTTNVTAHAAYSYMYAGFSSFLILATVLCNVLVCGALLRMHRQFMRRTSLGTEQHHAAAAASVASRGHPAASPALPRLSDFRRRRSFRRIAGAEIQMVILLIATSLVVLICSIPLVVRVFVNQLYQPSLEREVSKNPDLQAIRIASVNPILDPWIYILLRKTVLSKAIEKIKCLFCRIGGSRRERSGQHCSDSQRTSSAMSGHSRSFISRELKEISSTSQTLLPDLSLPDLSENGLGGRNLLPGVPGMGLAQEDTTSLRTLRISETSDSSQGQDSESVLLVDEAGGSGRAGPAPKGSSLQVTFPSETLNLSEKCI
Chain of Prostaglandin E2 receptor EP2 subtype (P43116 whole entry): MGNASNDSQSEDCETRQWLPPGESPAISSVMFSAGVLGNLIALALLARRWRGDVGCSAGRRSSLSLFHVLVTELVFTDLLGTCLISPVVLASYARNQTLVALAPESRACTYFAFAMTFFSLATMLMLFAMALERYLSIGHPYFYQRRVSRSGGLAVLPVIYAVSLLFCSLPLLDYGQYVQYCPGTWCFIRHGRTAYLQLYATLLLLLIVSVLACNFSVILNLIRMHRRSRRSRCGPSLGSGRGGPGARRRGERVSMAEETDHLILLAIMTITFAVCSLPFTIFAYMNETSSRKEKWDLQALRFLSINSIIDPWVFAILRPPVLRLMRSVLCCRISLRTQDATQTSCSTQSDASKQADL
Chain of Cytochrome P450 2D6 (P10635 whole entry): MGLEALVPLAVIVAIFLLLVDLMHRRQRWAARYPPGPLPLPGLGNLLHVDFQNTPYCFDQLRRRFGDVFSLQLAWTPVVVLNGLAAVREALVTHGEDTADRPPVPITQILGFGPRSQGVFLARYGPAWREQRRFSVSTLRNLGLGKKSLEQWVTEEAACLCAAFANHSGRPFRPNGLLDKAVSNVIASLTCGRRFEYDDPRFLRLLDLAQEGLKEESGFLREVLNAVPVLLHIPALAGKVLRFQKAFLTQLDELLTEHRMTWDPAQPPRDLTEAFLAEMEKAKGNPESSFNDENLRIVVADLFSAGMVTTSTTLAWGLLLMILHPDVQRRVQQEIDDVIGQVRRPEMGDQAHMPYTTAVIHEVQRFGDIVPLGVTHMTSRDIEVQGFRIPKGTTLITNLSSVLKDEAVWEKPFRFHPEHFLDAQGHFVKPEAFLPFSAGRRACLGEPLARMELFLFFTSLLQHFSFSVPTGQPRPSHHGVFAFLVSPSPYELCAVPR

| Compound | pEC50 [1] | half-life at 0.1 µM [2] [h] | solubility thermodynamic at 24 h, 200 µM [3] [µM] | half-life at 1 µM [4] [h] | Activity [5] | inhibition (INH) (Cytochrome P450 3A) | inhibition (INH) (Cytochrome P450 2C8) | fraction unbound at 4 h, 10 µM [6] | Activity [7] [%] | inhibition (INH) (Cytochrome P450 2D6) | Activity [8] | Ratio Ki (Homo sapiens) | CLH [9] [µL/min/10^6 cells] | inhibition (INH) (Cytochrome P450 1A) | pKi [10] | Activity [11] | Activity [12] | recovery at 2 h, 5 µM [13] [%] | Papp B→A at 2 h, 5 µM [14] [×10⁻⁶ cm/s] | Papp A→B at 2 h, 5 µM [15] [×10⁻⁶ cm/s] |
| --- | --- | --- | --- | --- | --- | --- | --- | --- | --- | --- | --- | --- | --- | --- | --- | --- | --- | --- | --- | --- |
| CCC#CC[C@H](C)[C@H](O)/C=C/[C@H]1CC(F)(F)C(=O)N1CCCCCCC(=O)O | 8.58 | > 2 | 197 (≈ 78.7 µg/mL) | > 2 | Non-Toxic | Not Active | Not Active | 0.416 | < 50 | Not Active | Non-Toxic | > 5000 | < 8.2 | Not Active | 9.42 | Non-Toxic | Non-Toxic | 93 | 14.5 | 9.93 |
| CCC#CC[C@H](C)[C@H](O)/C=C/[C@H]1CCC(=O)N1CCCCCCC(=O)O | 7.70 | > 2 | 192 (≈ 69.9 µg/mL) | 1.93 | Non-Toxic | Not Active | Not Active | 0.558 | < 50 | Not Active | Non-Toxic | > 5000 | < 8.2 | Not Active | 8.63 | Non-Toxic | Non-Toxic | 97 | 10.1 | 6.38 |
